Columns and labels:
[1] = test system: Liver; assay: Intrinsic clearance in human liver microsomes at 2.5 uM assessed per gram of liver; assay type: ADME, microsome
[2] = test system: Liver; assay: Intrinsic clearance in rat liver microsomes at 2.5 uM assessed per gram of liver; assay type: ADME, microsome

Structure (SMILES)	CLint [1] [mL/min/g]	CLint [2] [mL/min/g]
O=S(=O)(c1cc(F)cc(F)c1)c1cnc2c(F)cccc2c1-c1ccccc1F	0.09	–
O=S(=O)(c1ccc(F)c(Cl)c1)c1cnc2cc(F)ccc2c1-c1cccc(F)c1	0.25	–
COc1ccc(-c2c(S(=O)(=O)c3cccc(F)c3)cnc3c(F)cccc23)cc1	2.48	–
O=S(=O)(c1ccc(F)c(Cl)c1)c1cnc2cc(F)ccc2c1-c1ccccc1F	1.07	–
COc1ccc(S(=O)(=O)c2cnc3c(F)cccc3c2-c2cccc(OC)c2)cc1	2.87	–
O=S(=O)(c1ccc(F)c(Cl)c1)c1cnc2c(F)cccc2c1-c1ccc(Cl)cc1	0.01	–
COc1ccc(S(=O)(=O)c2cnc3cc(F)ccc3c2-c2ccc(F)cc2)cc1Cl	1.29	–
COc1ccc(-c2c(S(=O)(=O)c3cccc(F)c3)cnc3cc(F)ccc23)cc1	1.89	–
COc1cccc(-c2c(S(=O)(=O)c3cc(Cl)cc(Cl)c3)cnc3c(F)cccc23)c1	2.31	–
COc1ccc(-c2c(S(=O)(=O)c3cc(F)cc(F)c3)cnc3c(F)cccc23)cc1	2.59	–
COc1ccc(S(=O)(=O)c2cnc3c(F)cccc3c2-c2cccc(F)c2)cc1	3.03	–
COc1ccc(S(=O)(=O)c2cnc3cc(F)ccc3c2-c2cccc(Cl)c2)cc1Cl	1.19	–
COc1ccc(S(=O)(=O)c2cnc3cc(F)ccc3c2-c2ccc(Cl)cc2)cc1	1.28	–
O=S(=O)(c1ccc(F)c(F)c1)c1cnc2cc(F)ccc2c1-c1ccccc1F	0.79	–
Cc1ccc(S(=O)(=O)c2cnc3cc(F)ccc3c2-c2cccc(F)c2)cc1C	3.71	–
Cc1ccc(S(=O)(=O)c2cnc3c(F)cccc3c2-c2ccc(F)cc2)cc1F	2.75	–
COc1ccc(-c2c(S(=O)(=O)c3cc(Cl)cc(Cl)c3)cnc3cc(F)ccc23)cc1	1	–
O=S(=O)(c1cc(Cl)cc(Cl)c1)c1cnc2c(F)cccc2c1-c1ccc(Cl)cc1	0.78	–
O=S(=O)(c1ccc(F)cc1)c1cnc2cc(F)ccc2c1-c1ccc(F)cc1	1.34	–
N#Cc1cccc(S(=O)(=O)c2cnc3c(F)cccc3c2-c2cccc(Cl)c2)c1	1.11	–
O=S(=O)(c1cccc(F)c1)c1cnc2cc(F)ccc2c1-c1cccc(F)c1	0.24	–
O=S(=O)(c1ccc(F)c(F)c1)c1cnc2c(F)cccc2c1-c1ccccc1F	1.39	–
Cc1ccc(S(=O)(=O)c2cnc3cc(F)ccc3c2-c2ccc(F)cc2)cc1F	2.33	–
N#Cc1cccc(S(=O)(=O)c2cnc3c(F)cccc3c2-c2ccccc2F)c1	0.66	–
O=S(=O)(c1cc(F)cc(F)c1)c1cnc2c(F)cccc2c1-c1cccc(F)c1	1.18	–

Structure (SMILES)	CLint [1] [mL/min/g]	CLint [2] [mL/min/g]
O=S(=O)(c1ccc(F)cc1)c1cnc2c(F)cccc2c1-c1cccc(Cl)c1	1.21	–
COc1ccc(S(=O)(=O)c2cnc3c(F)cccc3c2-c2cccc(Cl)c2)cc1	2.75	–
COc1ccc(S(=O)(=O)c2cnc3cc(F)ccc3c2-c2ccc(F)cc2)cc1	1.71	–
COc1ccc(S(=O)(=O)c2cnc3cc(F)ccc3c2-c2cccc(F)c2)cc1	2.94	–
O=S(=O)(c1ccc(F)cc1)c1cnc2c(F)cccc2c1-c1cccc(F)c1	1.56	–
N#Cc1cccc(S(=O)(=O)c2cnc3cc(F)ccc3c2-c2ccccc2F)c1	1.39	–
COc1ccc(-c2c(S(=O)(=O)c3ccc(F)cc3)cnc3c(F)cccc23)cc1	2.41	–
N#Cc1cccc(S(=O)(=O)c2cnc3c(F)cccc3c2-c2ccc(Cl)cc2)c1	0.08	–
O=S(=O)(c1cc(F)cc(F)c1)c1cnc2c(F)cccc2c1-c1ccc(Cl)cc1	0.73	–
COc1ccc(-c2c(S(=O)(=O)c3ccc(OC)cc3)cnc3cc(F)ccc23)cc1	1.18	–
COc1cccc(-c2c(S(=O)(=O)c3ccc(F)c(F)c3)cnc3cc(F)ccc23)c1	1.77	–
Cc1ccc(S(=O)(=O)c2cnc3c(F)cccc3c2-c2cccc(Cl)c2)cc1F	3.18	–
COc1cccc(S(=O)(=O)c2cnc3cc(F)ccc3c2-c2cccc(F)c2)c1	3.36	–
O=S(=O)(c1cc(Cl)cc(Cl)c1)c1cnc2cc(F)ccc2c1-c1ccccc1F	0.93	–
COc1ccc(-c2c(S(=O)(=O)c3ccc(F)cc3)cnc3cc(F)ccc23)cc1	1.77	–
COc1cccc(-c2c(S(=O)(=O)c3cccc(C#N)c3)cnc3cc(F)ccc23)c1	1.83	–
O=S(=O)(c1cc(Cl)cc(Cl)c1)c1cnc2c(F)cccc2c1-c1cccc(Cl)c1	1.2	–
COc1cccc(-c2c(S(=O)(=O)c3cc(Cl)cc(Cl)c3)cnc3cc(F)ccc23)c1	1.51	–
Cc1ccc(S(=O)(=O)c2cnc3ccccc3c2N2CCOCC2)cc1C	3.37	18
O=S(=O)(c1cccc(F)c1)c1cnc2cc(F)ccc2c1-c1ccc(Cl)cc1	0.98	–
O=S(=O)(c1cccc(F)c1)c1cnc2c(F)cccc2c1-c1ccccc1F	0.21	–
O=S(=O)(c1cccc(F)c1)c1cnc2c(F)cccc2c1-c1cccc(F)c1	1.14	–
O=S(=O)(c1cc(F)cc(F)c1)c1cnc2cc(F)ccc2c1-c1cccc(Cl)c1	0.22	–
COc1ccc(S(=O)(=O)c2cnc3cc(F)ccc3c2-c2cccc(F)c2)cc1Cl	2.08	–
